The supplement of paper PMC12463676, “Small-molecule dissolution of stress granules by redox modulation benefits ALS models” (Nature Chemical Biology, 2025)

Legend:
[1] = compound: NC(=O)CCCCC1CCSS1 [lipoamide]; assay: thermal stability z-score vs DMSO; higher = more thermally stabilized by treatment; details: HeLa, lipoamide concentration 100 µM
Method: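 Cellular thermal proteome profiling in HeLa cells. Cells were treated with 100 µM lipoamide for 1 h, with or without 1 mM arsenate for a further 1 h, then heated to ten temperatures (37-66.3 °C), and soluble protein was quantified by TMT mass spectrometry relative to 0.1% DMSO controls. The thermal stability score (sum of log2 fold changes minus the abundance score) was transformed to a z-score; mean of n = 3 experiments.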

[2] = compound: O=[As]([O-])(O)O.[K+] [potassium arsenate]; assay: as above; details: HeLa; arsenate concentration 1 mM
Method: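 Cellular thermal proteome profiling in HeLa cells treated with 1 mM arsenate for 1 h (DMSO pretreatment), heated to ten temperatures (37-66.3 °C). Soluble protein was quantified by TMT mass spectrometry relative to DMSO controls; the thermal stability score was transformed to a z-score; mean of n = 3 experiments.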

[3] = arsenate co-treatment: 1 mM arsenate 1 h
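Also: each temperature applied for 3 min, abundance score taken as mean log2 fold change at the two lowest temperatures, z-score obtained by mean subtraction and division by SD.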

Chain of UniProt Q8IWW6 (Q8IWW6 whole entry): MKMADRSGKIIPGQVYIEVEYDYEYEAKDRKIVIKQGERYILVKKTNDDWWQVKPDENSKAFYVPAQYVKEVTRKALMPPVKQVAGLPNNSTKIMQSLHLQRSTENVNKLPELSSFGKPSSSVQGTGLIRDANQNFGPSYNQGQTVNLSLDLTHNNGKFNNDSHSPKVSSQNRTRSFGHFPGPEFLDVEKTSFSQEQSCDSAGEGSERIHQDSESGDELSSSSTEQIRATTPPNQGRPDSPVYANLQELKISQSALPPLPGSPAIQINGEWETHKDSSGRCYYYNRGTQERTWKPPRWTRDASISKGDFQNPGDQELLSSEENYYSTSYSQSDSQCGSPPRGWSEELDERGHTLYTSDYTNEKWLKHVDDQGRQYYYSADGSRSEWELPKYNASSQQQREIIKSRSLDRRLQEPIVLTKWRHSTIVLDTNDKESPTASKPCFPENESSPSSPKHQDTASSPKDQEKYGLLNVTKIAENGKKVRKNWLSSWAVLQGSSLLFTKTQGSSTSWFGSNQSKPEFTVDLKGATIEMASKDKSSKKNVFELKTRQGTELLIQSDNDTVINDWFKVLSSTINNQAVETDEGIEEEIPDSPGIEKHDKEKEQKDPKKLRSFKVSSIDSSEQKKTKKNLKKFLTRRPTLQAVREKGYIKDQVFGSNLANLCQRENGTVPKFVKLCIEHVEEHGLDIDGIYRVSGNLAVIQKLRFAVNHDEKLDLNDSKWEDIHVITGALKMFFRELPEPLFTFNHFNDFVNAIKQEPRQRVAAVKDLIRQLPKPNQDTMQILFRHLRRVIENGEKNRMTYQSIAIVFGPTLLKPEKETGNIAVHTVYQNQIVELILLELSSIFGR
Chain of UniProt Q96EU7 (Q96EU7 whole entry): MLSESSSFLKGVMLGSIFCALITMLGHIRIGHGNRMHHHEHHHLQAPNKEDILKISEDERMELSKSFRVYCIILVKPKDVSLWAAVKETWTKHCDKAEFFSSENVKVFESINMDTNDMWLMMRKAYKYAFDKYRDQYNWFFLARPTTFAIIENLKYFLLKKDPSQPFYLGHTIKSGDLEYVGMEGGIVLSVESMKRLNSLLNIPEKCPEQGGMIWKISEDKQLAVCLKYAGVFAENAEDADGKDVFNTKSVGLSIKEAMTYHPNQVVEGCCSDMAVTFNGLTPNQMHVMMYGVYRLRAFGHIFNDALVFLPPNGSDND
Chain of UniProt Q9GZP4 (Q9GZP4 whole entry): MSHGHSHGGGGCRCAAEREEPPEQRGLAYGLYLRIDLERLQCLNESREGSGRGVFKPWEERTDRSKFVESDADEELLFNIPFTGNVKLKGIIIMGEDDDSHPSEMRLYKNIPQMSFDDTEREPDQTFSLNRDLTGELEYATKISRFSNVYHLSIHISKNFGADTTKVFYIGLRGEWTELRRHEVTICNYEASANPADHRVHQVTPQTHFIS
Chain of UniProt O75390 (O75390 whole entry): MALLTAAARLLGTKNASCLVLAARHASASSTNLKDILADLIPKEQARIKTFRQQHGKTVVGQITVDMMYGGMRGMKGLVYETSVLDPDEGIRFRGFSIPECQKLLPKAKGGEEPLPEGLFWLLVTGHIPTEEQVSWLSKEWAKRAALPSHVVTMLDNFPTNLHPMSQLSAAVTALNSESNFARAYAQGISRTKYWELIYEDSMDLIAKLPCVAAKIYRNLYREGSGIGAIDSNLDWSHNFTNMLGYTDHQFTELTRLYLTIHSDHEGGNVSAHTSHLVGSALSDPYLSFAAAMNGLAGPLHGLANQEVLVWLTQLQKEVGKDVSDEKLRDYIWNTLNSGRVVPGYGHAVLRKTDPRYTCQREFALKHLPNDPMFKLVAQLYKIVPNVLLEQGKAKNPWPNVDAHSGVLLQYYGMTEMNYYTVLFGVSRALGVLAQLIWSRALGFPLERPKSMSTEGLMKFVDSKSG
Chain of UniProt Q16890 (Q16890 whole entry): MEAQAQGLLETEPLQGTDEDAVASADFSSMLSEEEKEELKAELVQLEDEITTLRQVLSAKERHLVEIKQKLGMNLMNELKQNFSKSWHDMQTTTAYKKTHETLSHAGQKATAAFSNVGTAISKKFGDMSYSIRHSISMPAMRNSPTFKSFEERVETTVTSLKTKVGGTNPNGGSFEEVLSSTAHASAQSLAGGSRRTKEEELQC
Chain of UniProt O75934 (O75934 whole entry): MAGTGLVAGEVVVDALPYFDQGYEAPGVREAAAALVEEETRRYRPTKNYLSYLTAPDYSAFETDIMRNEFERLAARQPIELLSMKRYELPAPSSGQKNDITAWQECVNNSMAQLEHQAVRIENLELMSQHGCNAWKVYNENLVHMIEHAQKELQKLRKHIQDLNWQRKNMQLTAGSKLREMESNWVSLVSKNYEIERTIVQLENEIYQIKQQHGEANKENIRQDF
Chain of UniProt Q15269 (Q15269 whole entry): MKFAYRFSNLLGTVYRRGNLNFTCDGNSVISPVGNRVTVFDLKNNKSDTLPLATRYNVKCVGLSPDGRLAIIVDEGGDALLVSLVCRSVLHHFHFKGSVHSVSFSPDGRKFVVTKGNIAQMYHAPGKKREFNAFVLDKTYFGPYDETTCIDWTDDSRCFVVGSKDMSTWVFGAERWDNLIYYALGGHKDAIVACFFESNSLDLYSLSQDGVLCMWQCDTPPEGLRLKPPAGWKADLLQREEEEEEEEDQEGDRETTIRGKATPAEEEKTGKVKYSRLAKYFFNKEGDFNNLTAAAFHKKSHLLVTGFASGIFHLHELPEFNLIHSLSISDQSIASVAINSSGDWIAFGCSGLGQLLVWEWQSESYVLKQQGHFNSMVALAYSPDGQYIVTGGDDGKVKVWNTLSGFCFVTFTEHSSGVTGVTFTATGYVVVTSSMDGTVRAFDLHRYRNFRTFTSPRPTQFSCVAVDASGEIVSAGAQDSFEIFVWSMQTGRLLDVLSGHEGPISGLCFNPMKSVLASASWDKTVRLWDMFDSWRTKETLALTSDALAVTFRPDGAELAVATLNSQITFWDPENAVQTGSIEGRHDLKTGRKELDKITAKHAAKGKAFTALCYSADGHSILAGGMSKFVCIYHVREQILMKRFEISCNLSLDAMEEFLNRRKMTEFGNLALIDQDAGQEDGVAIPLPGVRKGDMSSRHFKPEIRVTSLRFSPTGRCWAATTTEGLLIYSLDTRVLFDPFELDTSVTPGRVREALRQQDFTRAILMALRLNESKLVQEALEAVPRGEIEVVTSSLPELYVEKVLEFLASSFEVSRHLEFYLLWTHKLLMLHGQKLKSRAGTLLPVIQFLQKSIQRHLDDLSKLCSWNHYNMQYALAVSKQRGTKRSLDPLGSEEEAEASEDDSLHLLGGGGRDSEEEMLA
Chain of UniProt P23284 (P23284 whole entry): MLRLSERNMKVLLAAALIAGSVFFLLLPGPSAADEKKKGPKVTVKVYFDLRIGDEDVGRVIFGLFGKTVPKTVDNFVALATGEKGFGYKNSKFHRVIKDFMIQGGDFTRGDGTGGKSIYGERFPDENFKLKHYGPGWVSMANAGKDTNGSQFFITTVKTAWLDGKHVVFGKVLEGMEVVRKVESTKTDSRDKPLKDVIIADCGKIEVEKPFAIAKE
Chain of UniProt Q8IUC4 (Q8IUC4 whole entry): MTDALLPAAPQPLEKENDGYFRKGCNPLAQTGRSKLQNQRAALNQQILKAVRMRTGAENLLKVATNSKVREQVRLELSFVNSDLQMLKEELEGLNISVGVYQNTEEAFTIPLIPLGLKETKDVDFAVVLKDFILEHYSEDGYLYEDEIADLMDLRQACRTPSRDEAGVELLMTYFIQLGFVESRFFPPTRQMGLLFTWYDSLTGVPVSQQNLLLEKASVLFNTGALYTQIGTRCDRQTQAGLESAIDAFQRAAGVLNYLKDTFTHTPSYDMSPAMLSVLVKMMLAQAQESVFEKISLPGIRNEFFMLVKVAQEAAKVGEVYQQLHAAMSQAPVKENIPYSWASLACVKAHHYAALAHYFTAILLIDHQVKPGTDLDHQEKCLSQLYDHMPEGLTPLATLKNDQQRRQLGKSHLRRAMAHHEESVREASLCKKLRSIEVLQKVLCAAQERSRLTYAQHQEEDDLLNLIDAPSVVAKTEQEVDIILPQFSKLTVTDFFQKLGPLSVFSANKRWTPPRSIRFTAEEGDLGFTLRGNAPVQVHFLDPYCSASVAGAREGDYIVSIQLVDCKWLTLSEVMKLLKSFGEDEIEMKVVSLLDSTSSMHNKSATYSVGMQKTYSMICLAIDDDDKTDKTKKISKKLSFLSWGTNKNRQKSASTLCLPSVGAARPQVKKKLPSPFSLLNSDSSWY
Chain of UniProt P30740 (P30740 whole entry): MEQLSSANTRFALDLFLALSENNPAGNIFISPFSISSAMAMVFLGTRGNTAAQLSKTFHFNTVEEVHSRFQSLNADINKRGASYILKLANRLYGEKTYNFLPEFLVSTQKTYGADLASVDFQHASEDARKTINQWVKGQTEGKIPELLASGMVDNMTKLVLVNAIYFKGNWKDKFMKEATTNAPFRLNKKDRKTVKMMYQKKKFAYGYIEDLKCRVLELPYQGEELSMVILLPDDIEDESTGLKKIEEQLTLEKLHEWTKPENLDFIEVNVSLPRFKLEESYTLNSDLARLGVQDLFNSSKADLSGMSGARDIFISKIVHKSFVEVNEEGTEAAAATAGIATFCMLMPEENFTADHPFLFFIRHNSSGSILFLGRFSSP
Chain of UniProt Q9UII2 (Q9UII2 whole entry): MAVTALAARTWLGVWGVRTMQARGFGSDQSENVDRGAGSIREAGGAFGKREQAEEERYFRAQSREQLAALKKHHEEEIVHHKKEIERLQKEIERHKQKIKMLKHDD
Chain of UniProt Q15834 (Q15834 whole entry): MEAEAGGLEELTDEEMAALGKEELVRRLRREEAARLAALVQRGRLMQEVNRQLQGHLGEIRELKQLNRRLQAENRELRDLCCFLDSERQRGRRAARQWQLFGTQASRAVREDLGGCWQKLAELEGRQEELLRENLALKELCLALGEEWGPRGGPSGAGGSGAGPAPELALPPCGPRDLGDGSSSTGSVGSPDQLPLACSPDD
Chain of UniProt Q96DA6 (Q96DA6 whole entry): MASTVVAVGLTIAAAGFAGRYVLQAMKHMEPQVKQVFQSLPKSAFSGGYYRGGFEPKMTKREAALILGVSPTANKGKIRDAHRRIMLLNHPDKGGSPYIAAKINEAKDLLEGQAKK

| Target | thermal stability z-score [1, 3] | thermal stability z-score ([1]; arsenate co-treatment: none) | thermal stability z-score [2] |
| --- | --- | --- | --- |
| ATP6V1B2 (UniProt P21281) | -0.0948 | -0.684 | -0.745 |
| TRNT1 (UniProt Q96Q11) | 0.00685 | -0.189 | -0.174 |
| HGH1 (UniProt Q9BTY7) | 0.403 | 0.226 | 0.787 |
| RAB1A (UniProt P62820) | 0.28 | 0.338 | 0.312 |
| TRAFD1 (UniProt O14545) | -1.34 | -0.816 | -2.25 |
| WDR11 (UniProt Q9BZH6) | -0.207 | -0.147 | -0.267 |
| PWP2 (UniProt Q15269) | -0.256 | 0.154 | 0.864 |
| PPIB (UniProt P23284) | -3.74 | -2.72 | 0.559 |
| CLTB (UniProt P09497) | 1.48 | 1.89 | 0.557 |
| NECAP2 (UniProt Q9NVZ3) | 0.16 | -0.169 | -0.238 |
| SBF2 (UniProt Q86WG5) | -0.149 | -0.0174 | -0.179 |
| TBL2 (UniProt Q9Y4P3) | -0.257 | 0.0669 | 0.366 |
| TNPO3 (UniProt Q9Y5L0) | -0.654 | -0.367 | -0.107 |
| MSMO1 (UniProt Q15800) | -1.28 | -1.47 | 0.343 |
| CS (UniProt O75390) | -0.341 | 0.0055 | 0.561 |
| ARHGAP12 (UniProt Q8IWW6) | -0.578 | -0.344 | 0.668 |
| PCM1 (UniProt Q15154) | -0.0188 | -0.104 | 0.131 |
| RHPN2 (UniProt Q8IUC4) | -0.97 | -1.32 | 0.193 |
| NAA35 (UniProt Q5VZE5) | 0.334 | 0.635 | 0.265 |
| GPATCH11 (UniProt Q8N954) | -0.804 | -0.268 | 0.108 |
| SERPINB1 (UniProt P30740) | 0.391 | 0.191 | 0.23 |
| GDI2 (UniProt P50395) | 0.452 | 0.275 | -0.47 |
| ATRN (UniProt O75882) | 0.622 | -0.532 | 0.705 |
| PC (UniProt P11498) | -0.429 | -0.205 | -0.574 |
| RBM14 (UniProt Q96PK6) | -0.169 | -0.0944 | -0.803 |
| LIMCH1 (UniProt Q9UPQ0) | 0.0623 | 0.151 | 0.542 |
| NDFIP1 (UniProt Q9BT67) | 1.07 | 0.0758 | 1.41 |
| CCDC85B (UniProt Q15834) | 0.574 | 0.223 | 0.125 |

| Target | thermal stability z-score [1, 3] | thermal stability z-score ([1]; arsenate co-treatment: none) | thermal stability z-score [2] |
| --- | --- | --- | --- |
| RAC1 (UniProt P63000) | 0.154 | -0.0299 | 0.562 |
| DHX57 (UniProt Q6P158) | -0.125 | -0.0979 | -0.286 |
| CPSF7 (UniProt Q8N684) | 0.18 | 0.191 | -0.36 |
| PITHD1 (UniProt Q9GZP4) | -0.537 | 0.337 | 0.158 |
| PTCD2 (UniProt Q8WV60) | 0.00948 | -0.0661 | -0.0322 |
| TEX30 (UniProt Q5JUR7) | 0.373 | -0.174 | -0.411 |
| C1GALT1C1 (UniProt Q96EU7) | -0.776 | -0.734 | 0.1 |
| BCAS2 (UniProt O75934) | 0.913 | 0.747 | 0.558 |
| LRPPRC (UniProt P42704) | -1.08 | -0.312 | -0.267 |
| TMSB10 (UniProt P63313) | 0.8 | 0.288 | 0.014 |
| TPD52L1 (UniProt Q16890) | 0.471 | 0.545 | 0.237 |
| LCLAT1 (UniProt Q6UWP7) | 1.1 | 0.0592 | -2.38 |
| MTERF3 (UniProt Q96E29) | -0.371 | 0.034 | 0.564 |
| PRKCZ (UniProt Q05513) | -0.134 | -0.119 | -0.0717 |
| KPNA3 (UniProt O00505) | -1.01 | -0.146 | -0.288 |
| SNX9 (UniProt Q9Y5X1) | -0.0697 | -0.0413 | 0.276 |
| PIGK (UniProt Q92643) | -1.32 | -1.34 | -0.123 |
| ATPIF1 (UniProt Q9UII2) | 0.646 | 0.505 | -0.206 |
| ARFGAP1 (UniProt Q8N6T3) | -0.303 | 0.304 | 0.357 |
| RTTN (UniProt Q86VV8) | -0.0275 | -0.0536 | -0.117 |
| PPIL4 (UniProt Q8WUA2) | -0.441 | -0.236 | -0.913 |
| CASP3 (UniProt P42574) | 0.382 | -0.0479 | -0.737 |
| POLDIP2 (UniProt Q9Y2S7) | -0.119 | -0.241 | 0.18 |
| RNF167 (UniProt Q9H6Y7) | -0.267 | -0.216 | 0.669 |
| DNAJC19 (UniProt Q96DA6) | 0.522 | 0.211 | 0.253 |
| LMAN1 (UniProt P49257) | -3.38 | -2.78 | 0.757 |
| TSTA3 (UniProt Q13630) | -0.467 | -0.784 | -0.387 |
